Here are results for two compounds from ChEMBL document CHEMBL1671653, “GT-1a or GT-1b subtype-specific resistance profiles for hepatitis C virus inhibitors telaprevir and HCV-796” (Antimicrob Agents Chemother, 2009).

Common to all, as to type: functional, organism-based, Hepacivirus hominis
For assay [1], the system named is Hepatitis C virus. Briefly: Antiviral activity against Hepatitis C virus GT-1a harboring NS5B polymerase C316Y/M414T mutant gene.
Assay [2] relates to Hepatitis C virus. The assay is described as follows: Antiviral activity against Hepatitis C virus GT-1b assessed as inhibition of HCV replicon-encoded Renilla luciferase reporter activity after 3 days. The following applies: 72 h. (In general: A replicon is a self-replicating genome or part of one, used to study replication in cells.)
The subject of assay [3] is Hepatitis C virus. Briefly: Antiviral activity against Hepatitis C virus GT-1a harboring NS5B polymerase M414T mutant gene.
Assay [4] concerns Hepatitis C virus. The assay is described as follows: Antiviral activity against Hepatitis C virus GT-1a harboring NS5B polymerase C316Y/L392F mutant gene.
Assay [5] concerns Hepatitis C virus. The assay is described as follows: Antiviral activity against Hepatitis C virus GT-1a harboring NS5B polymerase L392F/M414T mutant gene.
The test system of assay [6] is Hepatitis C virus. Briefly: Antiviral activity against Hepatitis C virus GT-1a harboring NS5B polymerase C316Y mutant gene.
Assay [7] concerns Hepatitis C virus. The assay is described as follows: Antiviral activity against Hepatitis C virus GT-1b harboring wild type NS5B polymerase.
The test system of assay [8] is Hepatitis C virus. The assay is described as follows: Antiviral activity against Hepatitis C virus GT-1a harboring wild type NS5B polymerase.
Assay [9] relates to Hepatitis C virus. Briefly: Antiviral activity against Hepatitis C virus GT-1b harboring NS5B polymerase C316Y mutant gene relative to wild type.
The test system of assay [10] is Hepatitis C virus. The assay is described as follows: Antiviral activity against Hepatitis C virus GT-1a harboring NS5B polymerase L392F mutant gene.
Assay [11] deals with Hepatitis C virus. Briefly: Antiviral activity against Hepatitis C virus GT-1a assessed as inhibition of HCV replicon-encoded Renilla luciferase reporter activity after 3 days. As to conditions: 72 h.

The structures appear in SMILES notation.

The term EC50 denotes the concentration needed to bring the measured effect to its halfway point.

`CNC(=O)c1c(-c2ccc(F)cc2)oc2cc(N(CCO)S(C)(=O)=O)c(C3CC3)cc12` [NESBUVIR]: the EC50 in the assay on Hepatitis C virus [1] came to 2800 nM; in the assay with Hepatitis C virus [2], 17 nM; in the assay on Hepatitis C virus [3] it was 7 nM; with Hepatitis C virus [4] it was 3200 nM; with Hepatitis C virus [5], 22 nM; in the assay on Hepatitis C virus [6] it was 1700 nM. The EC50 in the assay with Hepatitis C virus [7] amounted to 6 nM; in the assay with Hepatitis C virus [8], 4 nM; with Hepatitis C virus [9], 6 nM; in the assay on Hepatitis C virus [10], 8 nM.

For `CCC[C@H](NC(=O)[C@@H]1[C@H]2CCC[C@H]2CN1C(=O)[C@@H](NC(=O)[C@@H](NC(=O)c1cnccn1)C1CCCCC1)C(C)(C)C)C(=O)C(=O)NC1CC1` [TELAPREVIR], the EC50 is 500 nM in the assay with Hepatitis C virus [11] and 560 nM with Hepatitis C virus [2].
